# Measured values taken from patent publication US9573907B2, “2, 4-pyrimidine derivatives and use thereof” (SNU R&DB FOUNDATION, priority 2009, dated 2017).
# Entries after “also recorded” stand apart in the source; their conditions may differ.
# How the values were obtained:
# [1] = molecular target: interaction of gp96 and AIMP1 (Mus musculus, UniProt P08113); assay: ELISA assay of gp96-AIMP1 interaction; assay type: binding, murine
# Method: FIGS. 1 to 9 represent suppression of cell surface gp96 by GPM1 reduces DC maturation and B220^+ population in gp96tm transgenic mice. (FIG. 1) Chemical structure of GPM1 (Formula 2) and negative control (NC1, Formula 16) used in this study. (FIG. 2) The dose-dependent effect of GPM1 or NC1 on the AIMP1-gp96 interaction using ELISA method as described. The indicated concentrations of the two compounds and biotin-conjugated murine gp96 were added to AIMP1 coated on the surface of microtiter wells, and gp96 bound to AIMP1 was detected with strepavidin-conjugated peroxidase. (FIG. 3) The binding of GPM1 to gp96 was examined by surface plasmon resonance (SPR). GPM1 at the indicated concentrations was injected to immobilized gp96 and the binding was measured using Biacore 3000. The response data were processed using data from a reference surface and buffer injections. Each concentration was tested in triplicate. (FIG. 4) RAW24.7 cells were treated with 10 μM GPM1 for 24 h. Cell lysates were immunoprecipitated with control IgG or anti-gp96 antibody and the immunoprecipitated proteins were immunoblotted with anti-KDELR1, antiAIMP1 and gp96 antibodies. WCL means whole cell lysate. (FIG. 5) Splenocytes isolated from C57BL/6 mice were treated with vehicle (5% DMSO in PBS), GPM1, or NC1 (10 μM, 24 h), stained for cell surface gp96, and followed by flow cytometry. (FIG. 6) AIMP1^+/+ or AIMP1^−/− mouse splenocytes (2×10^5 cells) were treated with vehicle, GPM1, or NC1 (10 μM, 24 h), fixed, and then co-cultured with WT bone marrow-derived DCs (1×10^4 cells) for 16 h. TNFα secreted from BMDCs was quantified by ELISA. (FIG. 7) Percentage of gp96^+ MHC class II^+ cell population in splenocytes from gp96tm transgenic female mice treated with vehicle (control) (n=9), GPM1 (n=9), and dexamethasone (n=7) at 30 mg/kg. (FIG. 8) Cell surface ICOSL of CD11b^+CD11c^+ (myeloid DCs), CD11b^−CD11c^+ (lymphoid DCs), and CD11b^+CD11c^− (macrophages) cell populations in splenocytes from gp96tm transgenic female mice treated with vehicle (n=9) and GPM1 (n=9) at 30 mg/kg. (FIG. 9) Percentage of B220^+, MHC class II^+, CD4^+, CD8^+, CD4 and CD8 double negative cell populations in splenocytes from gp96tm transgenic female mice treated with vehicle (n=9), GPM1 (n=9), and dexamethasone (n=7) at 30 mg/kg. Student t-test P values comparing GPM1-treated mice with control are indicated.
# 96-well plates (Maxisorp., F96; Nunc) were coated with 500 ng/well AIMP1 in PBS (pH 7.4). After washing, the remaining sites were blocked with PBS containing 1% BSA for 1 h. Binding of 10 ng/well biotin-conjugated gp96 was performed in Tris buffer (25 mM Tris, 10 mM NaCl and 0.4% Triton X-100). Each of the 6,580 compounds was added to the well at 100 nM and the plates were washed and incubated with HRP conjugated streptavidin in PBS containing 0.1% BSA and 0.1% Tween 20 for 30 min. The plates were washed, and then substrate was added to each well. The absorbance was monitored at 450 nm.
# To identify chemicals that can affect membrane translocation of gp96, the present inventors employed the interaction of gp96 with AIMP1 as the screening target. For this screening, the present inventors chose 6,482 chemicals with different pharmacophore representing 150,000 different chemicals deposited in Korea Chemical Bank and identified the compounds that can inhibit the interaction of the two proteins. For the screening, the present inventors set up a modified ELISA method using recombinant AIMP1 and gp96 proteins as described in Experimental methods. Each of the tested compounds gave different effect on the interaction of the two proteins (FIG. 19). And the present inventors have selected 12 compounds that inhibited the interaction more than 95% of the control at 0.1 μM (Table 1). The present inventors obtained 1251 additional compounds derived from these 12 initial hits and tested them again for their activities against the gp96-AIMP1 interaction.
# [2] = system: cell surface gp96 of splenocytes isolated from C57BL/6 mice; assay: Flow cytometry of cell surface gp96 on splenocytes; assay type: cell-based; conditions: 10 μM, 24 h
# Method: FIGS. 1 to 9 represent suppression of cell surface gp96 by GPM1 reduces DC maturation and B220^+ population in gp96tm transgenic mice. (FIG. 1) Chemical structure of GPM1 (Formula 2) and negative control (NC1, Formula 16) used in this study. (FIG. 2) The dose-dependent effect of GPM1 or NC1 on the AIMP1-gp96 interaction using ELISA method as described. The indicated concentrations of the two compounds and biotin-conjugated murine gp96 were added to AIMP1 coated on the surface of microtiter wells, and gp96 bound to AIMP1 was detected with strepavidin-conjugated peroxidase. (FIG. 3) The binding of GPM1 to gp96 was examined by surface plasmon resonance (SPR). GPM1 at the indicated concentrations was injected to immobilized gp96 and the binding was measured using Biacore 3000. The response data were processed using data from a reference surface and buffer injections. Each concentration was tested in triplicate. (FIG. 4) RAW24.7 cells were treated with 10 μM GPM1 for 24 h. Cell lysates were immunoprecipitated with control IgG or anti-gp96 antibody and the immunoprecipitated proteins were immunoblotted with anti-KDELR1, antiAIMP1 and gp96 antibodies. WCL means whole cell lysate. […] TNFα secreted from BMDCs was quantified by ELISA. […]
# HL-60 cell lines = assay: FACS analysis of gp96 on cell surface of HL-60 cell lines; assay type: cell-based; conditions: 1 mM, 24 hours
# Method: FIG. 35 is a graph showing an FACS analysis result using gp96 antibody, on the amount of gp96 protein existing on a cell surface, when HL-60 cell lines were treated with a 2,4-pyrimidine derivatives at a concentration of 1 mM for 24 hours.
# Also, HL-60 cell lines were treated with a 2,4-pyrimidine derivative at a concentration of 1 mM for 24 hours, and the amount of gp96 protein existing on a cell surface was analyzed through flow cytometry (FACS) using gp96 antibody.
# Chain of interaction of gp96 and AIMP1 (P08113 22-802): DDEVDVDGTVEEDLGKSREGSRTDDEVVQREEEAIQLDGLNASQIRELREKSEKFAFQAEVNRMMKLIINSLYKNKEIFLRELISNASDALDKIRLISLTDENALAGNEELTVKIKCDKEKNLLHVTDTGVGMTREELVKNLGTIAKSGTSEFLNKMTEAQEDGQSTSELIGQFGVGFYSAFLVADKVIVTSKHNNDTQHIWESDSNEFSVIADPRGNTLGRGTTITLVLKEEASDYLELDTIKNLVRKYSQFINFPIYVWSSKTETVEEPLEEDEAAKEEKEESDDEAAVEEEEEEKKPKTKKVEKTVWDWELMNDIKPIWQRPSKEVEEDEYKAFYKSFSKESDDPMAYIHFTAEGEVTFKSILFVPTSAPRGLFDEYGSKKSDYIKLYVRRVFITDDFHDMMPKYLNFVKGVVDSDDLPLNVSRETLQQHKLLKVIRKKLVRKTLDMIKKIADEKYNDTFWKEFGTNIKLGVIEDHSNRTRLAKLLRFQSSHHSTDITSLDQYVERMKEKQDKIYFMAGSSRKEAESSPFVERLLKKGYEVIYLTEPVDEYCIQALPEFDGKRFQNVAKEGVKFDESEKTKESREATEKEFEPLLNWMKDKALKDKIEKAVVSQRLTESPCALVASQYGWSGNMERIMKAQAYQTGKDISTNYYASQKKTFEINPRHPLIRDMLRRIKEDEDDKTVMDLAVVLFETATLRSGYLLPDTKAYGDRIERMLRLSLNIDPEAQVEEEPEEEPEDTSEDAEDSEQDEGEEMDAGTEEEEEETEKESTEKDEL
Structure (SMILES),amount of gp96 protein existing on a cell surface (HL-60 cell lines),other results
"COc1cc(OC)nc(OC(Cc2ccccc2)C(=O)O)n1 (stereo not drawn) [NC1, 2-(4,6-dimethoxypyrimidin-2-yloxy)-3-phenylpropanoic acid, reference compound]",–,inhibition on the interaction of gp96 and AIMP1 [1]: 4%; dose-dependent effect on the interaction of gp96 and AIMP1 ([1]; ELISA): no effect; surface gp96 of mouse splenocytes [2]: not
"COC(=O)[C@@H](C)Oc1nc(OC)cc(OC)n1 [KR-S-012, D-2-(4,6-Dimethoxy-pyrimidin-2-yloxy)-propionic acid methyl ester]","better effects than KR-S-015; also recorded: better than isopropyl (KR-S-009, KR-S-010)",–
"COC(=O)CC(C)Oc1nc(OC)cc(OC)n1 [KR-S-014, D-3-(4,6-Dimethoxy-pyrimidin-2-yloxy)-butyric acid methyl ester]",better effects than KR-S-015,–
"COc1cc(OC)nc(O[C@@H](C)C(=O)O)n1 [KR-S-024, L-2-(4,6-Dimethoxy-pyrimidin-2-yloxy)-propionic acid]","better effects than KR-S-015; also recorded: better than isopropyl (KR-S-009, KR-S-010)",–
"CCN(CC)C(=O)C(Oc1nc(OC)cc(OC)n1)C(C)C (stereo not drawn) [KR-S-001, 2-(4,6-Dimethoxy-pyrimidin-2-yloxy)-N,N-diethyl-3-methyl-butyl amide]",better effects than KR-S-015; also recorded: better than ester (KR-S-010) or acid (KR-S-009),–
"COc1cc(OC)nc(OC(C(=O)N2CCCCC2)C(C)C)n1 (stereo not drawn) [KR-S-007, 2-(4,6-dimethoxy-pyrimidin-2-yloxy)-3-methyl-1-piperidin-1-yl-butan-1-one]",better effects than KR-S-015; also recorded: better than ester (KR-S-010) or acid (KR-S-009),–
"COc1cc(OC)nc(OC(C(=O)O)C(C)C)n1 (stereo not drawn) [KR-S-009, 2-(4,6-dimethoxy-pyrimidin-2-yloxy)-3-methyl-butyric acid]",better effects than KR-S-015,–
